Results as given in patent US8722626B2, “Method for controlling fibrosis and other pathological deposits in tissues comprising administering a GHRP-6 composition” (Centro de Ingenieria Genetica y Biotecnologia, priority 2006, dated 2014).
Square brackets hold non-standard residues; d marks the D form. Ends that are not written are not given here. Peptide text beside a SMILES is read from it. * marks the point of attachment. dTrp(2-Me) = Cc1[nH]c2ccccc2c1C[C@@H](N)C(=O)O; Octanoyl = CCCCCCCC(=O)*

Legend:
[1] = tested on: human keloid fragments xeno-transplanted in athymic mice; experiment: Human keloid fragments xeno-transplanted into athymic mice (Example 7); type: in vivo, mouse; conditions: for No. of fields positive to collagen-specific staining: Picrosirius red and trichromic Masson's staining, 4× and 10× averaged; for No. of fields positive to collagen-specific staining / No. of microscopic fields with mast cells (20X magnif.): infiltrated once every 24 hrs during 7 days; for No. of microscopic fields with mast cells (20X magnif.): aniline blue staining; for Hydroxiproline content in the tissue / Wet weight of the graft collected: infiltrated at the edges in the implants once every 24 hrs during 7 days, 5 micrograms to 1 milligram
Description: To study the effect of peptides GHRP-6, GHRP-2, Hexarelin and/or Ghrelin in eradicating the pathological deposits of physiological material in the skin, human keloid fragments were xeno-transplanted into the dorsal region in athymic mice. After 72 hrs of evolution, to corroborate grafting and viability of xeno-transplants, the animals (N=6) were randomly distributed into the following experimental groups: • A—Saline control group (vehicle of the active principles). • B—Group receiving GHRP-6. • C—Group receiving GHRP-2. • D—Group receiving Ghrelin. • E—Group receiving Hexarelin. • Treatments were applied once every 24 hrs during 7 days. The substances were infiltrated at the edges in the implants, for local bioavailability of the active principles, at dosages from 5 micrograms to 1 milligram. After the treatment period, the animals were sacrificed and the implants extracted to evaluate the pharmacological response to every substance. Samples were weighed and fragmented for histological studies and biochemical determinations of collagen. The fragments for histological studies were fixed in 10% formalin neutral, and those fragments for biochemical analyses were stored at −70° C. • The parameters studied were: • a—Wet weight of the graft collected. • b—Hydroxiproline content in the tissue. • c—Number of microscopic fields with tissue positive to Picrosirius red staining and trichromic Masson's staining.

[2] = tested on: transgenic mice over-expressing one mutated form of the NOTCH 3 gene; experiment: Dementia of vascular origin: transgenic mice over-expressing mutated NOTCH 3 gene (CADASIL model, Example 6); type: in vivo, mouse; design: SODt (oxidative stress marker) / Cabalase (oxidative stress marker) / HPT (oxidative stress marker) / MDA (oxidative stress marker): unit not given here; conditions: 100 μg/kg i.p. twice a week, 16 weeks; for Cabalase (oxidative stress marker) / Cerebral Myo-inositol / HPT (oxidative stress marker) / MDA (oxidative stress marker) / SODt (oxidative stress marker): brain; for No. of blood vessels positive to Congo Red / No. of blood vessels positive to Nissl / No. of hemorrhagic foci. / No. of subcortical infarctions.: cerebral tissues
Description: This experiment was conducted to evaluate the efficacy of pharmaceutical compositions indistinctly containing one of the peptides GHRP-6, GHRP-2, hexarelin or ghrelin on the central neurofunctional involution process in transgenic mice over-expressing one mutated form of the NOTCH 3 gene in blood vessel smooth muscle cells. These animals develop in terms of months an arteriopathy similar to that of the CASADIL disease, referred to the descriptive memory, and is occurring as one of the main causes of vascular dementia. In these animals, vascular lesions also include retinal-cerebral, cerebral and cochlear vasculopathies. The beta-amiloid material present in the brain and blood vessels, the deposit of osmophilic granular material in brain and meningeal artery walls and their reduced lumen are histopathologically relevant. White-pale zones, microinfarction and hemorrhagic foci zones appear in the brain and its main nervous trunks.
Eighteen- to twenty-months-old male mice were employed when evidenced the symptoms of the disease. The animals were randomly assigned to the following experimental treatment groups: • A—Placebo group receiving the physiological saline solution. • B—Group receiving GHRP-6 at a 100 μg/kg dosage. • C—Group receiving GHRP-2 at a 100 μg/kg dosage. • D—Group receiving Ghrelin at a 100 μg/kg dosage. • E—Group receiving Hexarelin at a 100 μg/kg dosage.
Treatments were applied twice a week during 16 weeks by intraperitoneal route. When treatments concluded, autopsy studies were conducted irrespective of the clinical improvement evidenced in a great number of animals treated. Brain tissue samples including meningeal tissues were collected for biochemical and histopathological determinations. The animals received anesthesia overdosed and subjected to intra-cardiac perfusion with cold physiological saline solution to wash off the blood present in the encephala. The encephala were extracted and one encephalon was frozen in dry-ice and the other was fixed in 4% para-formaldehyde neutral. Samples were cryo-sliced at 10 μm and slices were stained with hematoxylin/eosin, Congo Red, or incubated with an antibody specific for the beta-amiloid protein. Morphometric procedures were carried out by microscopic imaging capture by a camera connected to the microscope, and the images were analyzed with the DIGIPAT software.
Number of fibrillar deposits of beta-amiloid in blood vessels.
Number of sub-cortical infarctions.
Number of sub-cortical hemorrhages.
Brain concentration of myo-inositol as indicator of aging and brain metabolism deterioration (μmol/g of tissue).
Brain oxidative stress markers.

Compound	No. of fields positive to collagen-specific staining [1]	No. of microscopic fields with mast cells (20X magnif.) [1]	Hydroxiproline content in the tissue [1] [µg/g]	Wet weight of the graft collected [1] [a grams]	Cabalase (oxidative stress marker) [2]	Cerebral Myo-inositol [2]	HPT (oxidative stress marker) [2]	MDA (oxidative stress marker) [2]	SODt (oxidative stress marker) [2]	No. of blood vessels positive to Congo Red [2]	No. of blood vessels positive to Nissl [2]	No. of hemorrhagic foci. [2]	No. of subcortical infarctions. [2]
Cc1[nH]c2ccccc2c1C[C@@H](NC(=O)[C@@H](N)Cc1cnc[nH]1)C(=O)N[C@@H](C)C(=O)N[C@@H](Cc1c[nH]c2ccccc12)C(=O)N[C@H](Cc1ccccc1)C(=O)N[C@@H](CCCCN)C(N)=O [Hexarelin] (H-H[dTrp(2-Me)]AW[dF]K-NH2)	12.35	10.18 ± 2.98	88.59 ± 6.58	6.25 ± 1.73	51.19 ± 7.84	11.88 ± 2.71 μmol/g of tissue	54.3 ± 11.87	0.284 ± 0.01	10814.68 ± 33.08	15.24 ± 1.24	11.36 ± 6.4	14.61 ± 3.31	27.11 ± 3.55
GHRP-2	18.12	11.17 ± 3.33	84.17 ± 7.75	7.14 ± 1.02	48.23 ± 14.25	14.65 ± 4.38 μmol/g of tissue	117 ± 13.55	0.302 ± 0.01	11065.49 ± 46.29	18.26 ± 4.57	13.8 ± 6.76	11.79 ± 4.25	30.13 ± 5.72
Ghrelin: secretagogue peptide; active principle of the pharmaceutical composition (GSS(Octanoyl)FLSPEHQRVQQRKESKKPPAKLQPR; ends and bridges not checked; UniProt Q9UBU3 24-51, looked up)	11.27	10.71 ± 4.57	85.23 ± 4.11	6.67 ± 1.53	44.67 ± 11.58	14.04 ± 3.85 μmol/g of tissue	142.16 ± 10.01	0.261 ± 0.03	12290.9 ± 60.32	17.67 ± 2.26	11.27 ± 4.61	13.06 ± 2.77	26.9 ± 4.27
